Consider four compounds from ChEMBL document CHEMBL3991601, “The target landscape of clinical kinase drugs” (Science, 2017).

In assay [1] the target is T1, Aurora kinase A (Homo sapiens, UniProt O14965).
T1 sequence (O14965 whole entry): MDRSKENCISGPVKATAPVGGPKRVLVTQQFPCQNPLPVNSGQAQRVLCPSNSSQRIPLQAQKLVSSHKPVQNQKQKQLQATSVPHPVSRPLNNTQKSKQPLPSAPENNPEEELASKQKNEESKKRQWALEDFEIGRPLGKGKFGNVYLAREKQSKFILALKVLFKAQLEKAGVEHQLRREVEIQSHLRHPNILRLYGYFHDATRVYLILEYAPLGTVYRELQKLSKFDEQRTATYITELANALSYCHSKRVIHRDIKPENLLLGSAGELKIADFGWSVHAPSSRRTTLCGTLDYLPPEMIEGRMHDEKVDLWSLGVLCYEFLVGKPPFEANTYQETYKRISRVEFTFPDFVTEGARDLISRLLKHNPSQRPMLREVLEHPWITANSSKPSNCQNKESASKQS

In assay [2] the target is Calcium/calmodulin-dependent protein kinase type II subunit delta (Homo sapiens, UniProt Q13557).
Assay [3] concerns the target Cyclin-dependent kinase 7 (Homo sapiens, UniProt P50613).
For assay [4], the target named is Casein kinase I isoform epsilon (Homo sapiens, UniProt P49674).
Assay [5] addresses T2, Eukaryotic translation initiation factor 5B (Homo sapiens, UniProt O60841).
T2 sequence (O60841 whole entry): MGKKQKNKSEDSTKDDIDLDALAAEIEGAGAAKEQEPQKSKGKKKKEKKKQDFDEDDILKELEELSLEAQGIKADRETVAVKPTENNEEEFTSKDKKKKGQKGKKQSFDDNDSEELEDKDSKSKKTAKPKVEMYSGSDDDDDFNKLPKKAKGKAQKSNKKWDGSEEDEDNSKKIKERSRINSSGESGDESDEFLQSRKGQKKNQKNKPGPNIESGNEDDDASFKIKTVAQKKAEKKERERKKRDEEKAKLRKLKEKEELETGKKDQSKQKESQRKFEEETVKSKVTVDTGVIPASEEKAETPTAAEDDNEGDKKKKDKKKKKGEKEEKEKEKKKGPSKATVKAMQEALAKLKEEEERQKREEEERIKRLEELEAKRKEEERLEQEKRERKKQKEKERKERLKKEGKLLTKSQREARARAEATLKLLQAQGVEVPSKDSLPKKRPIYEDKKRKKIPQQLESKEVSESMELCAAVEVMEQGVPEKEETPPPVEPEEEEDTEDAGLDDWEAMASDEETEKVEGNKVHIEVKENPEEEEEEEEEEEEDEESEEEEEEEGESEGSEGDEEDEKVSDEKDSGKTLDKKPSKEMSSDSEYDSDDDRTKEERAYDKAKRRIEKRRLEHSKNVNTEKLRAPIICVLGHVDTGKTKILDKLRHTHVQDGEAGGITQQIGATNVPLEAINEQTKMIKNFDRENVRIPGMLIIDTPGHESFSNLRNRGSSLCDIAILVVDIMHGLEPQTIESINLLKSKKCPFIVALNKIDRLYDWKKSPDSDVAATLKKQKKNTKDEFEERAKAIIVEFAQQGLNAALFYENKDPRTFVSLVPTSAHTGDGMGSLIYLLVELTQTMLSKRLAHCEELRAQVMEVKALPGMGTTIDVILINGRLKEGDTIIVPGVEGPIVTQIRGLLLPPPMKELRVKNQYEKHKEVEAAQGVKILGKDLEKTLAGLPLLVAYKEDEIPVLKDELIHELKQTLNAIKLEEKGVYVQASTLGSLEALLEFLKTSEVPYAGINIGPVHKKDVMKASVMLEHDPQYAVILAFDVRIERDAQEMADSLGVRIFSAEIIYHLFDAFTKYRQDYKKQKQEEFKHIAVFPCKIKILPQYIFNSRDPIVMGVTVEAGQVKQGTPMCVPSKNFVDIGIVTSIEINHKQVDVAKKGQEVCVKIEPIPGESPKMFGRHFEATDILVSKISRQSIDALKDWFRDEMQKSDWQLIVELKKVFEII

The target of assay [6] is Serine/threonine-protein kinase/endoribonuclease IRE1 (Homo sapiens, UniProt O75460).
Assay [7] addresses Putative heat shock protein HSP 90-beta 2 (Homo sapiens, UniProt Q58FF8).
The target in assay [8] is T3, Phosphorylase b kinase gamma catalytic chain, liver/testis isoform (Homo sapiens, UniProt P15735).
T3 sequence (P15735 whole entry): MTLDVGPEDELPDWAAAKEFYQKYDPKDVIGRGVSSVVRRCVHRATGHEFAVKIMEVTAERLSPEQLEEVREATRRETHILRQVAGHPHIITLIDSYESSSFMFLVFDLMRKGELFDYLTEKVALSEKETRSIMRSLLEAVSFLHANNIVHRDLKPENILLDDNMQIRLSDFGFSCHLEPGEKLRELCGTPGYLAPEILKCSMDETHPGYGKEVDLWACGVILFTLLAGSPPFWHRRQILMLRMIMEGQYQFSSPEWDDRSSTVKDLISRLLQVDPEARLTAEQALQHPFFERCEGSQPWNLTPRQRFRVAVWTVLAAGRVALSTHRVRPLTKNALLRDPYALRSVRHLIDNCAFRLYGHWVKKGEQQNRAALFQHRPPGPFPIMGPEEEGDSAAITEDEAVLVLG

In assay [9] the target is Serine/threonine-protein kinase N1 (Homo sapiens, UniProt Q16512).
The target of assay [10] is TRAF2 and NCK-interacting protein kinase (Homo sapiens, UniProt Q9UKE5).
In assay [11] the target is T4, Uncharacterized protein FLJ45252 (Homo sapiens, UniProt Q6ZSR9).
T4 sequence (Q6ZSR9 whole entry): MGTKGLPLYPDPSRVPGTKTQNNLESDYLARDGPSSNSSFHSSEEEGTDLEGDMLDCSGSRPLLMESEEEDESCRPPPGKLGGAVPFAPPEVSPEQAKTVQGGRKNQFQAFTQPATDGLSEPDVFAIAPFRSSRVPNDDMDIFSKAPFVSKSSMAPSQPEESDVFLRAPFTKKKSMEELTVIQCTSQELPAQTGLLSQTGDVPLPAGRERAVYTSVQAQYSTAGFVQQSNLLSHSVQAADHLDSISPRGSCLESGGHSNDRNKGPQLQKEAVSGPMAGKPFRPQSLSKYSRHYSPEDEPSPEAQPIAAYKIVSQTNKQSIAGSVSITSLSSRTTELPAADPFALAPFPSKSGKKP
Particulars: read-out: Kd apparent; k-562, colo 205, sk-n-be(2) and mv-4-11.

The source made the active and inactive calls. Rule as the data show it, for most assays here: actives have a measured Kd and inactives only a lower limit.
Also: in the data inactive means no Kd found up to 30 µM.

Sequence of Calcium/calmodulin-dependent protein kinase type II subunit delta (Q13557 whole entry): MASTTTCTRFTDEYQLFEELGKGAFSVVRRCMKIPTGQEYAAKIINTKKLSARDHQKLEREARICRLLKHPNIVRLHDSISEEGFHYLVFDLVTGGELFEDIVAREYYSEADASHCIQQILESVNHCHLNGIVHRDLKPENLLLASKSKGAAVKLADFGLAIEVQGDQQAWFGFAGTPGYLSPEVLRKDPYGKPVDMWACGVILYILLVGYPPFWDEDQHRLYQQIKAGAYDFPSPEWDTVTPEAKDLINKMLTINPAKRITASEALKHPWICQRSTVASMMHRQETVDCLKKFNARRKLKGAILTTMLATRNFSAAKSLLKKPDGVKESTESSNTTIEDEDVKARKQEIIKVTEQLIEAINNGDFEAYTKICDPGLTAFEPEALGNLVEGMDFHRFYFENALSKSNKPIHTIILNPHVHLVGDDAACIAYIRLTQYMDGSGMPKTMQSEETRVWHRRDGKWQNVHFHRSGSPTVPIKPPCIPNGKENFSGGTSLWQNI
Sequence of Serine/threonine-protein kinase/endoribonuclease IRE1 (O75460 whole entry): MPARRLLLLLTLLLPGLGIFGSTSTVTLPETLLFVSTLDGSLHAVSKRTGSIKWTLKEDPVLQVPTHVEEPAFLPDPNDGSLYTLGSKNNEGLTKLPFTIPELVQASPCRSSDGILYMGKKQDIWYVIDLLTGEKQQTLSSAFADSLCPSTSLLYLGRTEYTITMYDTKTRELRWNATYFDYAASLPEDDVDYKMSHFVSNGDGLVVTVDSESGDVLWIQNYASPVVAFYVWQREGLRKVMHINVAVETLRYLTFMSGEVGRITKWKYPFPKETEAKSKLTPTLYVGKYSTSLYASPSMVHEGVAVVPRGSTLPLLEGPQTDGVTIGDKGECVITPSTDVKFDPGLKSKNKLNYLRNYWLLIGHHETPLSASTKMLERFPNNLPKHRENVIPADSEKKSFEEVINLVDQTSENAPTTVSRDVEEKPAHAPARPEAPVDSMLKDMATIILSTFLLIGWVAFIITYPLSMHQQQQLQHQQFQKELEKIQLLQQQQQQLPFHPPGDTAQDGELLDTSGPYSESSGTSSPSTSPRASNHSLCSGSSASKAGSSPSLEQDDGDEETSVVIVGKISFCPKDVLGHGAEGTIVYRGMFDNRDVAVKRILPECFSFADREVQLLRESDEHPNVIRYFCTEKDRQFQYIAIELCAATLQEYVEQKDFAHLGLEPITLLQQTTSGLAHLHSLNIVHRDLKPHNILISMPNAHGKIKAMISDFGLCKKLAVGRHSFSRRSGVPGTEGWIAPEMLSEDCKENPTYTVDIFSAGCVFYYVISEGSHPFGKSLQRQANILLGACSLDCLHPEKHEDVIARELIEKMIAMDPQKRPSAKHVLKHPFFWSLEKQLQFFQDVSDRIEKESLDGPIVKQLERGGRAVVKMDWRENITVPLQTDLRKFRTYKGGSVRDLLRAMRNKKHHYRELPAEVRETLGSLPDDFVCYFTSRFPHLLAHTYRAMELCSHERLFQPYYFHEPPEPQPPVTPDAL
Sequence of Putative heat shock protein HSP 90-beta 2 (Q58FF8 whole entry, canonical isoform): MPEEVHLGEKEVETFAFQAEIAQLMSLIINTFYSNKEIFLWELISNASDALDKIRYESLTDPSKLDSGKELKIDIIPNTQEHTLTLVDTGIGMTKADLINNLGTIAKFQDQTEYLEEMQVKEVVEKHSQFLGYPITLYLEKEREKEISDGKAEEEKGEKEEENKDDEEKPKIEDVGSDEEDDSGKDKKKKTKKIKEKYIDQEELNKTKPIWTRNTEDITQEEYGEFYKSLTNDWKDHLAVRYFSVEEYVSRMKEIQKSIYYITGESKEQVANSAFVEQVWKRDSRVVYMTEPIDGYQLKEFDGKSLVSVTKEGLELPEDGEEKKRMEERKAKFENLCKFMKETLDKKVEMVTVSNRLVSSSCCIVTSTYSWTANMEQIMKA
Sequence of TRAF2 and NCK-interacting protein kinase (Q9UKE5 whole entry): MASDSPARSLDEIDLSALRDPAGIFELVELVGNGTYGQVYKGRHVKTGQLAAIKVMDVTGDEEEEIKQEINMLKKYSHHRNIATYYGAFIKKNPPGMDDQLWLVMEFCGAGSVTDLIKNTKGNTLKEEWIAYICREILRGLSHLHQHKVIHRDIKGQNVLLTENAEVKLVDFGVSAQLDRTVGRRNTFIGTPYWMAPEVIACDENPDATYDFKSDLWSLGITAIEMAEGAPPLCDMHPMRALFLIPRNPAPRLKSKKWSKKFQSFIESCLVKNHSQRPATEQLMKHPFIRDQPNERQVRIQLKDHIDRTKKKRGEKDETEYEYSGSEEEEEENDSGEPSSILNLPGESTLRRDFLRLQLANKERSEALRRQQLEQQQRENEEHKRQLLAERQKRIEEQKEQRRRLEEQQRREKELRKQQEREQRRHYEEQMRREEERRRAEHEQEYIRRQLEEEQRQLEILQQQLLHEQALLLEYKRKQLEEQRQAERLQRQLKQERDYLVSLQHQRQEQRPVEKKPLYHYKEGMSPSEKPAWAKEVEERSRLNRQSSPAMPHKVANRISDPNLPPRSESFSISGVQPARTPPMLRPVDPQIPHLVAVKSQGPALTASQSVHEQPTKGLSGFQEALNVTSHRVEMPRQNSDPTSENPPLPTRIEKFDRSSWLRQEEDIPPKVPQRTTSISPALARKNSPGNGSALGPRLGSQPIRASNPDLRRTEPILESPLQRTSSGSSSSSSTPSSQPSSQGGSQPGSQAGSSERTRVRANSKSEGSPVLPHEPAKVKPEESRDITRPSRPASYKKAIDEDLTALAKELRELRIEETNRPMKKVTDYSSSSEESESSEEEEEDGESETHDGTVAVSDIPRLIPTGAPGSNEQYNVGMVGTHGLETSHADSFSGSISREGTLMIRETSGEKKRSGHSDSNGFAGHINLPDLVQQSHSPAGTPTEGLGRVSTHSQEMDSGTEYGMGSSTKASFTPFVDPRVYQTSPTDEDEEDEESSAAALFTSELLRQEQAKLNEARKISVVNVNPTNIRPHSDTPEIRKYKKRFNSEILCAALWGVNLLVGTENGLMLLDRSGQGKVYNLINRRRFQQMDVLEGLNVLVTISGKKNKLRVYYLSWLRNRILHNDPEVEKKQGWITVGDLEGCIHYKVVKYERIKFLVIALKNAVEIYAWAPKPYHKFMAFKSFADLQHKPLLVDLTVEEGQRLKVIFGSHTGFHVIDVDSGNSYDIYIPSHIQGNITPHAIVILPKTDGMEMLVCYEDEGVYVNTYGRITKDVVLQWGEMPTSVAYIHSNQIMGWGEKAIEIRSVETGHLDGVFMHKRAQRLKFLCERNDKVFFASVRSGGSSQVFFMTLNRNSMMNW
Sequence of Cyclin-dependent kinase 7 (P50613 whole entry, canonical isoform): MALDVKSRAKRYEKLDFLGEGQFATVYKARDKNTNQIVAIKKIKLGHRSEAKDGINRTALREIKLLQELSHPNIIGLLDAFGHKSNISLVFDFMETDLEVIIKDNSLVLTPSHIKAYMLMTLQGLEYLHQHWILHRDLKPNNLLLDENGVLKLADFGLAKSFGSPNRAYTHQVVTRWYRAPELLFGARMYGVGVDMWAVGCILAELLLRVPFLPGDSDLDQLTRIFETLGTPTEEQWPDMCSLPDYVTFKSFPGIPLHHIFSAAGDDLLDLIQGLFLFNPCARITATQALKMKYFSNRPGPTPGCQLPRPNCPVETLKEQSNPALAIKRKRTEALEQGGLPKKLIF
Sequence of Serine/threonine-protein kinase N1 (Q16512 whole entry): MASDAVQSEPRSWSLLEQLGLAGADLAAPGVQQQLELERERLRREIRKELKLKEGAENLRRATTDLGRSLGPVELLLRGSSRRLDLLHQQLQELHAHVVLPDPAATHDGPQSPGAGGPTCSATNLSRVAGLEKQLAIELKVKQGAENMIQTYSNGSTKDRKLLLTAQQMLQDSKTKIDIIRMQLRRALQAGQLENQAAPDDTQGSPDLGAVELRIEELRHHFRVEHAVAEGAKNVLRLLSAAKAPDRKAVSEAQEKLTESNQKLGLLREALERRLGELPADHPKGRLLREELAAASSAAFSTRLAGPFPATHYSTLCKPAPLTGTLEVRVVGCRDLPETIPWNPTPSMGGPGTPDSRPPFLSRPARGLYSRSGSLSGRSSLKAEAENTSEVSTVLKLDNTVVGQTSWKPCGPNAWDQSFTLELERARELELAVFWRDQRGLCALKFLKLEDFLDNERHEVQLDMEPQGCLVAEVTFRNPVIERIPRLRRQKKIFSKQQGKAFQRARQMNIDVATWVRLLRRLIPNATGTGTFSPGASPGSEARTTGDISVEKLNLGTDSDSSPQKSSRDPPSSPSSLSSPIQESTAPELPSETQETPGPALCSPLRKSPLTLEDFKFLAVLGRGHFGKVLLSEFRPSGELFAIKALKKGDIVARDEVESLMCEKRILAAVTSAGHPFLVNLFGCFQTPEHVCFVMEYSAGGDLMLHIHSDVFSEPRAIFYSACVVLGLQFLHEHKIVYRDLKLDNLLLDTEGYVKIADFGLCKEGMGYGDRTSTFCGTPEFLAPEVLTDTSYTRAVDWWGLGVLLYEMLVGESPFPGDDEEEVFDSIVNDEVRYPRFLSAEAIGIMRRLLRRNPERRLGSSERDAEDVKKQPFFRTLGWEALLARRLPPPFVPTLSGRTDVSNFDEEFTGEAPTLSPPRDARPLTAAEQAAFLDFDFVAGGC
Sequence of Casein kinase I isoform epsilon (P49674 whole entry, canonical isoform): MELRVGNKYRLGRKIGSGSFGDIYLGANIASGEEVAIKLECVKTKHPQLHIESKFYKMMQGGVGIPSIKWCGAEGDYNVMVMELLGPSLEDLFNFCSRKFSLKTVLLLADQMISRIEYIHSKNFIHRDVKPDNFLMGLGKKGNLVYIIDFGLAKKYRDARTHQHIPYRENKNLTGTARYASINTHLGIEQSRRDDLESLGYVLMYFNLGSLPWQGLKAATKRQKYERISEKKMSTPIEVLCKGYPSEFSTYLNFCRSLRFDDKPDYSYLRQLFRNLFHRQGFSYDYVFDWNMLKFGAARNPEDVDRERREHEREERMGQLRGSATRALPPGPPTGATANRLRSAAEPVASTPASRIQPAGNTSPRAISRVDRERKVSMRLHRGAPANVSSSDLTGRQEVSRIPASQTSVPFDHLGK

In the case of `O=C1NC(=O)[C@@H](c2cn3c4c(cccc24)CCC3)[C@@H]1c1c[nH]c2ccccc12` [TIVANTINIB], the Kd in assay [1] is > 30 µM (inactive); in assay [2] it was > 30 µM (inactive); in assay [3], > 30 µM (inactive); in [4], > 30 µM (inactive); in assay [5], 0.232 µM; in assay [6], > 30 µM (inactive). The Kd in assay [7], in assay [8], in assay [9], in [10] and in assay [11] was > 30 µM (inactive) in each case.

As for `Cc1cc(Nc2ncnc3ccc(NC4=NC(C)(C)CO4)cc23)ccc1Oc1ccn2ncnc2c1` [TUCATINIB], the Kd in [1], in assay [2], in [3], in [4], in assay [5] and in [6] was > 30 µM (inactive) in each case. The Kd in assay [7], in [8], in assay [9], in [10] and in [11] was > 30 µM (inactive) each time.

Take `C[C@@H](N)c1ccc(C(=O)Nc2ccnc3[nH]ccc23)cc1` [Y-39983]: the Kd in [1], in assay [2], in [3], in assay [4], in assay [5] and in assay [6] was > 30 µM (inactive) each time. Besides, the Kd is > 30 µM (inactive) in assay [7]; > 30 µM (inactive) in assay [8]; 0.253 µM (active) in assay [9]; > 30 µM (inactive) in assay [10]; 0.106 µM (active) in [11].

Consider `CN1C/C=C/CCOc2cccc(c2)-c2ccnc(n2)Nc2cccc(c2)C1` [ZOTIRACICLIB], for which the Kd is > 30 µM (inactive) in assay [1]; > 30 µM (inactive) in [2]; 0.473 µM (active) in assay [3]; > 30 µM (inactive) in assay [4]; > 30 µM (inactive) in assay [5]; > 30 µM (inactive) in assay [6]. For the same compound, the Kd is > 30 µM (inactive) in [7]; > 30 µM (inactive) in assay [8]; 1.69 µM (active) in [9]; > 30 µM (inactive) in assay [10]; > 30 µM (inactive) in assay [11].
